Experimental findings from patent US8765746B2 (Millennium Pharmaceuticals, Inc., priority 2010, dated 2014) are described below.

What all share (type): biochemical
In one assay the target is T1, PI3Kgamma (Homo sapiens, UniProt P48736).
T1 construct: His (N); host or cells: SF9 insect cells (baculovirus)
As to the kind of experiment: Human PI3K gamma enzyme assay (HTRF, as for PI3K alpha). As to conditions: for inhibition at 1.11 µM: read-out: PI3Kgamma % inh. The text has this:
(§1) The catalytic subunits of PI3Ks are cloned into either pDEST8(p110 alpha) or pDEST10(p110beta, p110delta, and p110gamma) as N-terminal His tagged fusion proteins using the Gateway system (Invitrogen, catalog#11804-010 for pDEST8 and 11806-015 for pDEST10). The sequences are verified before recombinant protein expression using the Baculovirus Expression System with Gateway® Technology. The accession numbers for the subunits are as follows:
(§2) The regulatory subunits of PI3Ks are cloned into pDEST8 as un-tagged protein using the Gateway system (Catalog#11804-010). The sequences are verified before recombinant protein expression using the Baculovirus Expression System with Gateway® Technology. The accession numbers for the subunits are as follows:
(§3) For expression of the p110 complexes, the p85 (MOI of 4) is co-infected with p110 alpha, beta, and delta respectively (1MOI) in SF9 cells and harvested at 60 hours post co-infection. P110 gamma was infected at 1 MOI and harvested at 60 hours post infection.
(§4) For purification, PI3Ks are purified by Ni-NTA Agarose (Qiagen #30250) followed by Mono Q 10/100 GL (Ge Healthcare #17-5167-01). VPS34 is purified by Glutathione Sepharose 4 Fast Flow (GE Healthcare #17-5132-03) followed by HiTrap Q (GE Healthcare #17-1153-01).
(§5) 0.5 uL compounds in DMSO are added to wells of a 384 well microtitre plate (Corning 3575). At room temperature: 10 ul PI3K reaction buffer (50 mM Hepes, 5 mM DTT, 150 mM NaCl, 10 mM beta-glycerophosphate, 10 mM MgCl2, 0.25 mM sodium cholate and 0.001% CHAPS, pH 7.00) containing ATP (25 uM, Promega) is added followed immediately by 10 ul PI3K reaction buffer containing di-C8 PI(4,5)P2 (3.5 uM, CellSignals) and PI3Kalpha (0.4875 nM, Millennium Protein Sciences Group) and the mixture is incubated with shaking at room temperature for 30 minutes. Then 5 ul PI3K stop mix (50 mM Hepes, 5 mM DTT, 150 mM NaCl, 0.01% Tween-20, 15 mM EDTA and 25 nM biotin-PI(3,4,5)P3 (Echelon) is added to quench the reaction followed immediately by addition of 5 ul HTRF detection mix (50 mM Hepes, 5 mM DTT, 150 mM NaCl, 0.01% Tween-20, 40 mM KF, 10 nM GST:GRP-1 PH domain (Millennium Protein Sciences Group), 15 nM Streptavidin-XL (CisBio) and 0.375 nM anti-GST Eu++ antibody (CisBio) at pH 7.00). The plates are then incubated for 1 hour at room temperature with shaking and then read on a BMG PheraStar Plus reader.
(§6) 2) Human PI3K beta, delta and gamma isoforms are tested using the procedure described for PI3K alpha above but with the following changes: PI3K beta (5.25 nM), PI3K delta (0.75 nM) and PI3K gamma (5 nM). All isoforms supplied by Millennium Protein Science Group.
Background: TR-FRET usually uses a lanthanide donor and a delayed reading to cut background.

Another assay has as its target T2, VPS34 (Homo sapiens, UniProt Q8NEB9).
T2 construct: GST (N); host or cells: SF9 insect cells (baculovirus)
As to the kind of experiment: Human VPS34 enzyme assay (Adapta Universal Kinase Assay). The note with it: for inhibition at 1.11 µM: 1 h, read-out: VPS34 % ihn. The procedure: VPS34 (accession number GB:BC033004) is cloned into pDEST20-Thombin as N-terminal GST tagged fusion proteins using the Gateway system (Invitrogen, catalog#11804-013). The sequences are verified before recombinant protein expression using the Baculovirus Expression System with Gateway® Technology.
For expression VPS34 was infected at 1MOI in SF9 cells and harvested 72 hours post infection.
For purification, VPS34 is purified by Glutathione Sepharose 4 Fast Flow (GE Healthcare #17-5132-03) followed by HiTrap Q (GE Healthcare #17-1153-01).
3) VPS34 is assayed using Adapta™ Universal Kinase Assay Kit (Invitrogen).
4) Human VPS34 enzyme assay method
100 mL compounds in DMSO are added to wells of a 384 well microtitre plate (Greiner 780076). At room temperature: 5 ul VPS34 reaction buffer (Invitrogen Assay Buffer Q (diluted 1 in 5 with nanopure water) plus 2 mM DTT and 2 mM MnCl2) containing ATP (20 uM, Promega) and 200 uM PI-PS substrate (Invitrogen PV5122) is added followed immediately by 5 ul VPS34 reaction buffer (as above) containing VPS34 (5 nM, Millennium Protein Sciences Group) and the mixture is incubated with shaking at room temperature for 1 hour. Then 5 ul VPS34 stop-detect mix (as per Invitrogen Adapta Assay kit (PV5009) instructions (contains kinase quench buffer, TR-FRET buffer, Adapta Eu anti-ADP antibody and Alexa Fluor 647 ADP tracer)) is added to quench the reaction. The plates are then incubated for 30 minutes at room temperature with shaking and then read on a BMG PheraStar Plus reader.

In the next assay the target is T3, PI3Kbeta (Homo sapiens, UniProt P42338).
T3 construct: His (N); host or cells: SF9 insect cells (baculovirus)
As to the kind of experiment: Human PI3K beta enzyme assay (HTRF, as for PI3K alpha). As to conditions: for inhibition at 1.11 µM: read-out: PI3Kbeta % inh; for IC50: read-out: IC50 (inhibit PI3Kbeta); for inhibition at 1.11 µM / PI3Kbeta % inh: at 1.11 μM. The gist of the method:
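N-His p110β/δ co-expressed with untagged p85 in Sf9, p110γ alone. Enzyme 5.25 nM (β), 0.75 nM (δ), 5 nM (γ), with ATP 25 uM and di-C8 PI(4,5)P2 3.5 uM (added-solution levels), pH 7.00, 30 min RT. HTRF read-out: biotin-PIP3, GST-GRP-1 PH domain, Eu anti-GST, streptavidin-XL.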

The target of the next assay is T4, PI3Kalpha (Homo sapiens, UniProt P42336).
T4 construct: His (N); host or cells: SF9 insect cells (baculovirus)
Description: Human PI3Kα enzyme assay (HTRF). As to conditions: for inhibition at 1.11 µM: read-out: PI3Kalpha % inh; for PI3Kalpha % inh: at 1.11 μM. The gist of the method:
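His-tagged p110α co-expressed with p85 in Sf9 cells was reacted for 30 min at room temperature in pH 7.00 Hepes buffer with 10 mM MgCl2. Addition solutions held 25 uM ATP, 3.5 uM di-C8 PI(4,5)P2 and 0.4875 nM enzyme. The reaction was quenched with EDTA/biotin-PIP3 and detected by HTRF (GST-GRP-1 PH domain, streptavidin-XL, Eu anti-GST) after 1 h.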

A further assay deals with T5, PI3Kdelta (Homo sapiens, UniProt O00329).
T5 construct: His (N); host or cells: SF9 insect cells (baculovirus)
As to the kind of experiment: Human PI3K delta enzyme assay (HTRF, as for PI3K alpha). As to conditions: for inhibition at 1.11 µM: read-out: PI3Kdelta % inh.
Text: as §1, §2, §3, §4, §5, §6

T2 sequence (Q8NEB9 whole entry): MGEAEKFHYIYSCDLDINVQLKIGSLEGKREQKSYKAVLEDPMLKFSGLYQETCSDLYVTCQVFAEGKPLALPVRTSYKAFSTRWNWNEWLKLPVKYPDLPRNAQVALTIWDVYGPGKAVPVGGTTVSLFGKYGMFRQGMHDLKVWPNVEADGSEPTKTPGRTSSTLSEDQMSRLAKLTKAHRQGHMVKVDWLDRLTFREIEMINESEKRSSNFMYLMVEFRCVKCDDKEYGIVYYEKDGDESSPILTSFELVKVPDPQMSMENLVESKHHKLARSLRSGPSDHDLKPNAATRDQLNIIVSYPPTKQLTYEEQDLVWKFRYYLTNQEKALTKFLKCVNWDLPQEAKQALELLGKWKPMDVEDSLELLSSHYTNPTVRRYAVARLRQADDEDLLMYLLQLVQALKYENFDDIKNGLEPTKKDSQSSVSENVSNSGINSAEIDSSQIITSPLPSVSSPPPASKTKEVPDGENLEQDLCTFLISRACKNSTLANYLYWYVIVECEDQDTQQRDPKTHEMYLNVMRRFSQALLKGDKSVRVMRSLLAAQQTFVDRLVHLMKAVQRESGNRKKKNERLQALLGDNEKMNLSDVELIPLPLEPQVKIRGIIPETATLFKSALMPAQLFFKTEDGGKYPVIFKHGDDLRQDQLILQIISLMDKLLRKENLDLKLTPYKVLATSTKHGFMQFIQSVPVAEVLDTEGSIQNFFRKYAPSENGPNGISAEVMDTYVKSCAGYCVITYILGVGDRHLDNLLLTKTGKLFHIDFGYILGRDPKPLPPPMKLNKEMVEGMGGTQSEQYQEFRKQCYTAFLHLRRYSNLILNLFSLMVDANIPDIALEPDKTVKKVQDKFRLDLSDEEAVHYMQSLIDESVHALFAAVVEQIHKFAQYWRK
T1 sequence (P48736 whole entry): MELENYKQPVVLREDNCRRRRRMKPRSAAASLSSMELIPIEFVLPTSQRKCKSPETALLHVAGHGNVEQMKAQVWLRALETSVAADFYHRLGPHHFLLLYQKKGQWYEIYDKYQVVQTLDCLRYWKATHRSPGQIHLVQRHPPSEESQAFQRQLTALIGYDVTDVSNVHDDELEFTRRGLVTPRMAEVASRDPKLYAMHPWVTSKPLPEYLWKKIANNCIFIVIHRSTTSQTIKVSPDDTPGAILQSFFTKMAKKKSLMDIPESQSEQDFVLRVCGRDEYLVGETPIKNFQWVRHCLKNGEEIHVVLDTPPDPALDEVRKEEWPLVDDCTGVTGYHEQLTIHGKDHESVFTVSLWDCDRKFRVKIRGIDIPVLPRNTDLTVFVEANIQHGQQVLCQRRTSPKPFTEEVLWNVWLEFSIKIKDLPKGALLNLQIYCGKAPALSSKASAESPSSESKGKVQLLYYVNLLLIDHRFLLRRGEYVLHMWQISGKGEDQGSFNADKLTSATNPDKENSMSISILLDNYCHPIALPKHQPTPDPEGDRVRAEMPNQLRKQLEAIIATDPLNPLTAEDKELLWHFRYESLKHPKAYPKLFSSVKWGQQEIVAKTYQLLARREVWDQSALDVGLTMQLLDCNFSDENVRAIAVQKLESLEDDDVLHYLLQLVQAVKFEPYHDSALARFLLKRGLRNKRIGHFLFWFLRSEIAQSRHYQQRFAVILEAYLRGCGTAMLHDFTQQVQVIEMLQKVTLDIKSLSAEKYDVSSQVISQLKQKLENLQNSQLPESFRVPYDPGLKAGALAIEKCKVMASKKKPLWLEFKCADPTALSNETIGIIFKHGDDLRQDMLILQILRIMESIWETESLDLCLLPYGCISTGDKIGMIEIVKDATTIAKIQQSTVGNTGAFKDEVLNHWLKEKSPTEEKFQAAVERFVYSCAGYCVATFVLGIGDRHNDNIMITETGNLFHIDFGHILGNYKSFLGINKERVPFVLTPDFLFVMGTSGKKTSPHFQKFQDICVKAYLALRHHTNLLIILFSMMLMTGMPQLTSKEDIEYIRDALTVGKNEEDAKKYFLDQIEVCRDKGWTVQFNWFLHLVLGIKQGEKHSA
T3 sequence (P42338 whole entry): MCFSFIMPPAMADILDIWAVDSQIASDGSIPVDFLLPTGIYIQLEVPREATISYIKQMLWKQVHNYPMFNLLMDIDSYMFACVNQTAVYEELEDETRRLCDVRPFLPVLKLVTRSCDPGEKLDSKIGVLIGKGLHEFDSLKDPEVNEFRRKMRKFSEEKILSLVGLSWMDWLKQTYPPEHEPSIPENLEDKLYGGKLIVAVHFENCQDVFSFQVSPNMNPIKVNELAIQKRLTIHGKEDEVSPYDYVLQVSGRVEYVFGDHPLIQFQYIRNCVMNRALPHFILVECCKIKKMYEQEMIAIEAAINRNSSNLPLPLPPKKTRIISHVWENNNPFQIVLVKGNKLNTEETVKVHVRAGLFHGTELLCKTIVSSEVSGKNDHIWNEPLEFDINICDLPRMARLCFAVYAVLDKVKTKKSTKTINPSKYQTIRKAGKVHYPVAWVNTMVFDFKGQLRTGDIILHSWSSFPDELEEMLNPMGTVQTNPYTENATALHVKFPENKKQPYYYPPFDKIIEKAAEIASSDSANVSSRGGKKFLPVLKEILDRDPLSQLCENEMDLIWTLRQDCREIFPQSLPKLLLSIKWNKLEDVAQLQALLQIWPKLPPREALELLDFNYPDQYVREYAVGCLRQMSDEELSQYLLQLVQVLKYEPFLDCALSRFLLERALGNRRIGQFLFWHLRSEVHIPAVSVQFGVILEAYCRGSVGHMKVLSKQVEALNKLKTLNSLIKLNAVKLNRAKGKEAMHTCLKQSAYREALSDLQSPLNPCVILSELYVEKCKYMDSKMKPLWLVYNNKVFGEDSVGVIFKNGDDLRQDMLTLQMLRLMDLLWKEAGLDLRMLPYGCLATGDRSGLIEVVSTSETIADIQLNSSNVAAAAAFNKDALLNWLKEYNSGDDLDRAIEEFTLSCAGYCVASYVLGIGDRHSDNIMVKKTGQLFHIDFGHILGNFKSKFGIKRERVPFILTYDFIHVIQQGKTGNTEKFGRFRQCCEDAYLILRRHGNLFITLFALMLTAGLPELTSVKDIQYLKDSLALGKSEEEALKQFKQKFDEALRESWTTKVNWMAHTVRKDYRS
T3 sequence (P27986 whole entry partner): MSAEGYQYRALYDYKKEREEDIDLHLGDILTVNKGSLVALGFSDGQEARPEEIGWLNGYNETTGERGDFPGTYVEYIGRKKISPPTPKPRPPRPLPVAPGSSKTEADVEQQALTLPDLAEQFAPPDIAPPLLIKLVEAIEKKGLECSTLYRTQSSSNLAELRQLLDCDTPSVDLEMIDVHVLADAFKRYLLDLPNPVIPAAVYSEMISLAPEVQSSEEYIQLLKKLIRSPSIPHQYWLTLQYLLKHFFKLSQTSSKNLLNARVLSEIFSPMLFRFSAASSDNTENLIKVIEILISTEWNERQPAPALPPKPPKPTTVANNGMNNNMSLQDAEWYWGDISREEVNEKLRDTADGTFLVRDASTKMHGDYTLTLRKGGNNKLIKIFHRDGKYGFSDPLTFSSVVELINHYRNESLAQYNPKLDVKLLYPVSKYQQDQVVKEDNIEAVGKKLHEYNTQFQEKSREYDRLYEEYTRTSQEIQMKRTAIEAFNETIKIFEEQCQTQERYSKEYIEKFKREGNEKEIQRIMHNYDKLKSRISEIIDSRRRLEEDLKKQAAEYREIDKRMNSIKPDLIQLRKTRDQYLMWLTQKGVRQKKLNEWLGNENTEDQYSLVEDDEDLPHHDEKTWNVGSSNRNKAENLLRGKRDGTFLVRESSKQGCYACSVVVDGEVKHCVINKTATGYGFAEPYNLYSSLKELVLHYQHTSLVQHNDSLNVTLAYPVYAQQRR
T4 sequence (P42336 whole entry): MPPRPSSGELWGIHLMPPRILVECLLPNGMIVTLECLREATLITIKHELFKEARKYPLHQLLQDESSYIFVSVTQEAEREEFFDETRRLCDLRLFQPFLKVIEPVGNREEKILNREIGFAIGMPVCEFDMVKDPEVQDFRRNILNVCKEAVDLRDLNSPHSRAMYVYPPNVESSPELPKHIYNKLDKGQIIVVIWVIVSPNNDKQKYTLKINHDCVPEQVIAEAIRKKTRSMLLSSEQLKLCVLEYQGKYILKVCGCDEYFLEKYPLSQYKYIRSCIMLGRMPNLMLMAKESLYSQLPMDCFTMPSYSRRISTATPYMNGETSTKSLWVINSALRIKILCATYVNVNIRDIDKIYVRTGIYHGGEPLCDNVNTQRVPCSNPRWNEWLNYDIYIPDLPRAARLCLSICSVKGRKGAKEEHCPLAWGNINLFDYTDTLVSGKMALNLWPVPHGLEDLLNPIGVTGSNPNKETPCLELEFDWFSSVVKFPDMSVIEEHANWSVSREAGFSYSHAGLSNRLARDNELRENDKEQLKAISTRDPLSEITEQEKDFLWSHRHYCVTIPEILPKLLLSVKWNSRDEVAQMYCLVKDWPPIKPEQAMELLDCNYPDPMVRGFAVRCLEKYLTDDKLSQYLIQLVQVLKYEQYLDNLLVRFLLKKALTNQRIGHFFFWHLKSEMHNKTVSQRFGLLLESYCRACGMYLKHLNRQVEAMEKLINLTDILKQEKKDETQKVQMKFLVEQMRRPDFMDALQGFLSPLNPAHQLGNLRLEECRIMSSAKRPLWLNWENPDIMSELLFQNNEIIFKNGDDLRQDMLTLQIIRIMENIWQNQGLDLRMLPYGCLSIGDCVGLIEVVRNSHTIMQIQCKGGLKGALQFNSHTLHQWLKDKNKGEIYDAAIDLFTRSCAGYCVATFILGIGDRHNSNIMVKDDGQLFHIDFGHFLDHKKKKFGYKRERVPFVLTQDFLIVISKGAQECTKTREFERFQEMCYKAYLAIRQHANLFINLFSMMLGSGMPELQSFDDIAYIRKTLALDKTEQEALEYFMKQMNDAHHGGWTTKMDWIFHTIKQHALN
T4 sequence (P27986 whole entry partner): as the sequence (P27986 whole entry partner) above

Take `O=C1CC(c2ccc(Cl)cc2)c2cc(-c3ccncc3)sc2N1` (centres unmarked) [Compound 182, 4-(4-chlorophenyl)-2-(pyridin-4-yl)-4,5-dihydrothieno[2,3-b]pyridin-6(7H)-one]: the inhibition at 1.11 µM at PI3Kgamma is 3.51%; at VPS34, 14%; on PI3Kbeta, 61.2%; on PI3Kalpha, 2.99%; at PI3Kdelta it was 48.5%.

The term IC50 denotes the concentration that gives 50% inhibition. Turning to `O=S1(=O)NCC(O)(c2ccc(Cl)cc2)c2cc(-c3ccncc3)sc21` (racemic) [Compound 26, 4-(4-chlorophenyl)-6-pyridin-4-yl-3,4-dihydro-2H-thieno[3,2-e][1,2]thiazin-4-ol 1,1-dioxide], the inhibition at 1.11 µM on PI3Kgamma is 11.7%; on VPS34 it was 1.2%; on PI3Kbeta it was 105%; at PI3Kalpha, 6.6%; at PI3Kdelta, 37.9%. On PI3Kbeta, the half-maximal inhibitory concentration (IC50) was below 100 nM.

On to `CC(=O)Nc1cc(-c2cc3c(s2)C(=O)CCC3c2ccc(Cl)cc2)ccn1` (centres unmarked) [Compound 7, N-{4-[4-(4-chlorophenyl)-7-oxo-4,5,6,7-tetrahydro-1-benzothien-2-yl]pyridin-2-yl}acetamide], for which the inhibition at 1.11 µM at PI3Kgamma amounted to 6.5%; on VPS34, 9.6%; on PI3Kbeta, 64.6%; at PI3Kalpha it was 20.5%; at PI3Kdelta, 91.3%. In addition, the IC50 at PI3Kbeta lay in the range of 100 to 1000 nM.

The compound `O=C1CC(c2ccc(Cl)cc2)c2cc(N3CCOCC3)sc21` (centres unmarked) [Compound 145] returned a PI3Kgamma % inh on PI3Kgamma (at 1.11 μM) of 50.45%. For the same compound, the VPS34 % ihn on VPS34 (at 1.11 μM) was −1.31%. At PI3Kbeta, this compound displayed a PI3Kbeta % inh of 101.66%. The compound further had a PI3Kalpha % inh on PI3Kalpha of 18.36%. Further, the PI3Kdelta % inh on PI3Kdelta (at 1.11 μM) was found to be 88.59%.

As for `O=C1CCCC(c2ccc(Cl)cc2)c2cc(-c3ccncc3)sc21` (centres unmarked) [Compound 19, 4-(4-chlorophenyl)-2-pyridin-4-yl-4,5,6,7-tetrahydro-8H-cyclohepta[b]thiophen-8-one], the inhibition at 1.11 µM is 8.1% at PI3Kgamma; -6.8% on VPS34; 86.5% at PI3Kbeta; -0.4% on PI3Kalpha; 43.1% at PI3Kdelta. Also, at PI3Kbeta, the IC50 lay within 100 to 1000 nM.

For the compound `O=C1CCC(c2ccc(Cl)cc2)c2cc(-c3ccncc3)sc21` (single isomer, unassigned) [Compound 22, 4-(4-chlorophenyl)-2-pyridin-4-yl-5,6-dihydro-1-benzothiophen-7(4H)-one], the inhibition at 1.11 µM on PI3Kgamma is 14.2%; at VPS34, 4.4%; on PI3Kdelta it was 44.5%. This compound also registered a PI3Kbeta % inh on PI3Kbeta of 97.500%. In addition, on PI3Kbeta, the 50% inhibitory concentration (IC50) is below 100 nM. This compound had a PI3Kalpha % inh at PI3Kalpha of 0.600%.

Consider `CC1(C)C(=O)c2sc(-c3ccncc3)cc2C1c1ccc(Cl)cc1` (centres unmarked) [Compound 147, 4-(4-chlorophenyl)-5,5-dimethyl-2-(pyridin-4-yl)-4H-cyclopenta[b]thiophen-6(5H)-one], for which the inhibition at 1.11 µM at PI3Kgamma was found to be 2.45%; on VPS34, 9.65%; on PI3Kbeta, 65.7%; at PI3Kalpha, 3.15%; at PI3Kdelta, 9.91%.

With `CC1=CC(=O)Nc2sc(-c3ccncc3)cc2C1(C)c1ccc(Cl)cc1` (centres unmarked) [Compound 17, 4-(4-chlorophenyl)-4,5-dimethyl-2-pyridin-4-yl-4,8-dihydro-7H-thieno[2,3-b]azepin-7-one], the inhibition at 1.11 µM was 8.6% on PI3Kgamma; 28.5% on VPS34; 96.8% on PI3Kbeta; 12.4% on PI3Kalpha; 47.9% on PI3Kdelta. The IC50 on PI3Kbeta was below 100 nM.

As for `O=C1CCC(c2ccc(Cl)cc2)c2cc(-c3ccncc3)sc21` (racemic) [Compound 13, 4-(4-chlorophenyl)-2-pyridin-4-yl-5,6-dihydro-1-benzothiophen-7(4H)-one], the inhibition at 1.11 µM on PI3Kgamma turned out to be 10.8%; at VPS34, 6.6%; at PI3Kbeta, 102%; at PI3Kalpha, 3.1%; on PI3Kdelta it was 55.7%. Besides, the half-inhibitory concentration (IC50) at PI3Kbeta is below 100 nM.

As for `CC1(C)C(=O)c2sc(N3CCOCC3)cc2C1c1ccc(Cl)cc1` (centres unmarked) [Compound 161, 4-(4-chlorophenyl)-5,5-dimethyl-2-morpholino-4H-cyclopenta[b]thiophen-6(5H)-one], the inhibition at 1.11 µM stood at 19.3% on PI3Kgamma; 10.8% at VPS34; 92.6% at PI3Kbeta; 12.1% at PI3Kalpha; 59.3% at PI3Kdelta.

For `Clc1ccc(C2Cc3cn[nH]c3-c3sc(-c4ccncc4)cc32)cc1` (centres unmarked) [Compound 12, 5-(4-chlorophenyl)-7-pyridin-4-yl-4,5-dihydro-1H-thieno[3,2-g]indazole], the inhibition at 1.11 µM at PI3Kgamma was 31%; on VPS34 it was -6%; on PI3Kbeta, 73.2%; at PI3Kalpha it was 9.4%; at PI3Kdelta it was 69%. Also, the IC50 on PI3Kbeta lay within 100 to 1000 nM.

Turning to `O=C1CCCC(O)(c2ccc(Cl)cc2)c2cc(-c3ccncc3)sc21` (centres unmarked) [Compound 15, 4-(4-chlorophenyl)-4-hydroxy-2-pyridin-4-yl-4,5,6,7-tetrahydro-8H-cyclohepta[b]thiophen-8-one], the inhibition at 1.11 µM was 4% on PI3Kgamma; 2% at VPS34; 65% on PI3Kbeta; 3.1% on PI3Kalpha; 26.4% at PI3Kdelta. For the same compound, at PI3Kbeta, the IC50 lay in the range of 100 to 1000 nM.
